The text below walks through data of patent US5393897A, “Isolation and structure of spongistatins 5,7,8 and 9” (Arizona Board of Regents acting on behalf of Arizona State …, priority 1993, dated 1995).

Common to all, as to format: cell-based
One assay relates to HCT-116. Description: NCI cell line panel. The settings on record: Homo sapiens, Colon Cancer, read-out: Log10 GI50 (converted). From the text:
(§1) Only two hundred years ago, many diseases ravaged humankind. Many of these diseases now have been controlled or eradicated. In the development of the means to treat or control these diseases, work with the appropriate common experimental animals was of critical importance. With the various types of cancers, and with the HIV virus, such work is presently ongoing. The research for the treatment of various types of cancer is coordinated in the United States by the National Cancer Institute (NCI). NCI, as a government entity, has been charged with assisting anti-cancer research. To establish whether a substance has anti-cancer activity, NCI has established a variety of protocols, one of which involves testing the candidate substance against a cell line panel containing 60 human tumor cell lines. This protocol has been verified and is generally accepted throughout the scientific community. This protocol and the established statistical means of evaluating the results obtained therefrom have been fully described in the literature. See Principles & Practice of Oncology PPO Updates, Volume 3, Number 10, October 1989, by Michael R. Boyd, M.D., Ph.D., for an in depth description of the test protocol. The statistical analysis is explained in "Display and Analysis of Patterns of Differential Activity of Drugs Against Human Tumor Cell Lines: Development of Means Graph and COMPARE Algorithm" Journal of the National Cancer Institute Reports Vol. 81, No. 14, Pg. 1088, Jul. 14, 1989, by K. D. Paull et al. Both of these references are incorporated herein by this reference thereto. The effectiveness and validity of the NCI in vitro protocol continues to be verified.

In another assay the test system is HT29. Description: NCI cell line panel. The following applies: Homo sapiens, HT-29; Colon Cancer; read-out: Log10 GI50 (converted).
Excerpt: as §1

A further assay has as its system M14. As to the kind of experiment: NCI cell line panel. The settings on record: Homo sapiens, Melanoma, read-out: Log10 GI50 (converted).
Excerpt: as §1

A further assay deals with MDA-N. As to the kind of experiment: NCI cell line panel. The following applies: Homo sapiens, Breast Cancer, read-out: Log10 GI50 (converted).
Excerpt: as §1

In the next assay the test system is Breast Cancer. Description: NCI cell line panel, breast cancer line, BT-549 or T-47D not assignable. The following applies: Homo sapiens, last of 7 values for 8 lines, read-out: Log10 GI50 (converted).
Excerpt: as §1, with “The statistical analysis is explained in "Display and Analysis of Patterns of Differential Activity of Drugs Against Human Tumor Cell Lines: Development of Means Graph and COMPARE Algorithm" Journal of the National Cancer Institute Reports Vol. 81, No. 14, Pg. 1088, Jul. 14, 1989, by K. D. Paull et al. Both of these references are incorporated herein by this reference thereto. The effectiveness and validity of the NCI in vitro protocol continues to be verified.” left out

Regarding `C=C/C=C/C(O)CC(=C)CC1OC2C(C)C(OC(=O)CC3CC(O)CC4(CC(C)(O)CC(C=C5COC(C(C)C(=O)CC6CC(OC)CC7(CC(O)CC(/C=C\CCCC8OC(O)(CC(O)C8C)C2O)O7)O6)C5C)O4)O3)C1O` (centres unmarked) [spongistatin 7], the GI50 is 0.288 nM in the assay on HCT-116; 1.51 nM with HT29; 0.49 nM in the assay with M14; 0.0151 nM in the assay on MDA-N; 100 nM with Breast Cancer.
